Assay results as given in patent US12195427B2, “MASP-2 inhibitors and methods of use” (priority 2018, dated 2025).
Structures can show the parent of a compound that is named as a salt.

Biological target: MASP-2 CCP2-SP (Homo sapiens (Human), UniProt O00187)
Assay: MASP-2 co-crystallization, X-ray crystallography and structure analysis (H-bonds, van der Waals contacts);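 for Ligand-pharmacophore element distance, pharmacophore element C2: distance from averaged pharmacophore element to bound ligand; missing value means element absent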;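 for Ligand-pharmacophore element distance, pharmacophore element C3: distance from averaged pharmacophore element to bound ligand; missing value means element absent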;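 for Ligand-pharmacophore element distance, pharmacophore element C4: distance from averaged pharmacophore element to bound ligand; missing value means element absent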;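 for Ligand-pharmacophore element distance, pharmacophore element C5: distance from averaged pharmacophore element to bound ligand; missing value means element absent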
Design: van der Waals contact distance, MASP-2 HIS 483 atom CD2 / van der Waals contact distance, MASP-2 HIS 483 atom NE2 / van der Waals contact distance, SER 654 C to compound atom / van der Waals contact distance, SER 654 O to compound atom / van der Waals contact distance, TRP 655 C to compound atom / van der Waals contact distance, MASP-2 GLY 528 atom CA / van der Waals contact distance TRP 655 atom CZ3 / van der Waals contact distance TRP 655 atom N / van der Waals contact distance TRP 655 atom CE3 / van der Waals contact distance GLY 656 atom C / van der Waals contact distance GLY 656 atom CA / van der Waals contact distance GLY 656 atom O / van der Waals contact distance, MASP-2 TYR 607 atom CD1 / van der Waals contact distance, MASP-2 PRO 606 atom O / d(C3,CA1) / d(CA1,N1)2 / d(H4,O1) / d(H4,O2) / d(O1,O2) / d(CA1,O2) / d(CA6,O1) / d(CA6,O2) / d(CA1,C5) / d(O2,H3) / d(N2,C2) / d(CA5,N2) / d(N2,C4) / d(N2,C6) / d(N2,CA3) / d(N2,O3) / d(O4,H2): unit not given beside the values
Conditions: for H-bond distance to MASP-2 GLY 656 atom N / H-bond distance to MASP-2 GLY 656 atom O / H-bond distance to MASP-2 SER 654 atom O / H-bond distance to MASP-2 SER 657 atom O / H-bond distance to MASP-2 ASP 627 atom OD2 / H-bond distance to MASP-2 SER 628 atom O: Table A1 (H-Bonds); for H-bond distance to MASP-2 GLY 656 atom N: GLY 656 N; for H-bond distance to MASP-2 GLY 656 atom O: GLY 656 O; for H-bond distance to MASP-2 SER 654 atom O: SER 654 O; for H-bond distance to MASP-2 SER 657 atom O: SER 657 O; for van der Waals contact distance, MASP-2 HIS 483 atom CD2 / van der Waals contact distance, MASP-2 HIS 483 atom NE2: Table A2-1; for van der Waals contact distance, MASP-2 GLY 528 atom CA: Table A2-2; for Ligand-pharmacophore element distance, pharmacophore element C2 / Ligand-pharmacophore element distance, pharmacophore element C3 / Ligand-pharmacophore element distance, pharmacophore element C4 / Ligand-pharmacophore element distance, pharmacophore element C5 / Ligand-pharmacophore element distance, pharmacophore element C6 / Ligand-pharmacophore element distance, pharmacophore element C7 / Ligand-pharmacophore element distance, pharmacophore element CA1 / Ligand-pharmacophore element distance, pharmacophore element CA2 / Ligand-pharmacophore element distance, pharmacophore element CA3 / Ligand-pharmacophore element distance, pharmacophore element CA4 / Ligand-pharmacophore element distance, pharmacophore element CA5 / Ligand-pharmacophore element distance, pharmacophore element CA6: Table A4-1; for a(O1, O2, H3) / a(O1, O2, N2) / a(O2, N2, CA2): Table A6-2 pharmacophore angle; for H-bond distance to MASP-2 ASP 627 atom OD2: ASP 627 OD2; for H-bond distance to MASP-2 SER 628 atom O: SER 628 O; for van der Waals contact distance TRP 655 atom CE3: MASP-2 TRP 655 CE3, compound atom in line below; for van der Waals contact distance TRP 655 atom CZ3: MASP-2 TRP 655 CZ3
Summary of the method: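 E. coli-expressed CCP2-SP (±6His); apo crystals soaked 1–2× in inhibitor-containing crystallization solution; optional 20% glycerol cryoprotection, LN2 flash-cool; synchrotron data at 1.0 wavelength; MR using 1Q3X portions, partial refinement; single pose analysed when several seen.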

[1] = Table A2 section before Table A2-8
[2] = Table A5-1 pharmacophore: distance between elements, S2/S1 region
[3] = Table A5-2 pharmacophore distance, S3/S4 region
[4] = Table A7-1, between pharmacophore elements of the bound compound
[5] = Table A7-2, between pharmacophore elements of the bound compound
[6] = Table A2-7: SER 628 (CB, O, OG)

Sequence of MASP-2 CCP2-SP (O00187 445-686): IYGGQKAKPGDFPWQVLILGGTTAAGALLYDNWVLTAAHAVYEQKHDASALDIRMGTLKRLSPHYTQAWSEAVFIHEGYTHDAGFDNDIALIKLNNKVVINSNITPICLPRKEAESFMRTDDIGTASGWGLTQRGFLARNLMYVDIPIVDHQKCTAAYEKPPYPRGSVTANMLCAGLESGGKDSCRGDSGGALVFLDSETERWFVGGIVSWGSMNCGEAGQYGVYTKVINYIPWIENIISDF
Sequence of MASP-2 CCP2-SP (O00187 364-432 partner): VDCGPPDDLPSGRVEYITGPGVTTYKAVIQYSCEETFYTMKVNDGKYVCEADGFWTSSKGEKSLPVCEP

Structure (SMILES): C[C@H](NC(=O)[C@H]1C[C@H](Cc2ccccc2)CN1)C(=O)NCc1cc(Cl)ccc1-n1cnnn1 [compound 1371, (2R,4S)-4-Benzyl-N—((S)-1-((5-chloro-2-(1H-tetrazol-1-yl)benzyl)amino)-1-oxopropan-2-yl)pyrrolidine-2-carboxamide Hydrochloride]
- H-bond distance to MASP-2 GLY 656 atom N: 3.18
- H-bond distance to MASP-2 GLY 656 atom O: 2.75
- H-bond distance to MASP-2 SER 654 atom O: 2.86
- H-bond distance to MASP-2 SER 657 atom O: 2.96
- van der Waals contact distance, MASP-2 HIS 483 atom CD2: 3.55
- van der Waals contact distance, MASP-2 HIS 483 atom NE2: 3.61
- van der Waals contact distance, MASP-2 GLY 528 atom CA: 3.8
- van der Waals contact distance, MASP-2 PHE 529 atom CD2 (Table A2-3): 3.86
- van der Waals contact distance, MASP-2 PHE 529 atom CE2 (Table A2-3): 3.89
- van der Waals contact distance, MASP-2 amino acid atom to compound atom (Table A2-9 second part, ARG 630, AA atoms N, NE, NH1): 3.44
- van der Waals contact distance, SER 654 C to compound atom (Table A2-11): 3.9
- van der Waals contact distance GLY 656 atom C (Table A2-13, MASP-2 GLY 656 C): 3.84
- van der Waals contact distance, MASP-2 amino acid atom to compound atom [1]: 3.76
- Ligand-pharmacophore element distance, pharmacophore element C2: 0
- Ligand-pharmacophore element distance, pharmacophore element C3: 0
- Ligand-pharmacophore element distance, pharmacophore element C4: 0
- Ligand-pharmacophore element distance, pharmacophore element C5: 0.48
- Ligand-pharmacophore element distance, pharmacophore element C6: 0
- Ligand-pharmacophore element distance, pharmacophore element C7: 0
- Ligand-pharmacophore element distance, pharmacophore element CA1: 0.58
- Ligand-pharmacophore element distance, pharmacophore element CA2: 0.46
- Ligand-pharmacophore element distance, pharmacophore element CA3: 0
- Ligand-pharmacophore element distance, pharmacophore element CA4: 0
- Ligand-pharmacophore element distance, pharmacophore element CA5: 0
- Ligand-pharmacophore element distance, pharmacophore element CA6: 0
- d(CA1,O1) [2]: 3.46
- d(CA1,O2) [2]: 3.72
- d(H4,O1) [2]: 3.13
- d(H4,O2) [2]: 3.66
- d(O1,O2) [2]: 3.25
- d(N2,CA2) [3]: 5.90
- d(O2,H3) [3]: 1.96
- d(O2,N2) [3]: 2.79
- a(CA1, O1, O2) (Table A6-1 pharmacophore angle): 121.03
- a(O1, O2, H4) (Table A6-1 pharmacophore angle): 123.31
- a(O1, O2, H3): 136.64
- a(O1, O2, N2): 146.93
- a(O2, N2, CA2): 155.86
- Pharmacophore torsion angle a(H4, O1, O2, H3) [4]: −165.12
- Pharmacophore torsion angle a(H4, O1, O2, N2) [4]: −174.11
- Pharmacophore torsion angle a(O1, H4, O2, CA1) [4]: −68.15
- Pharmacophore torsion angle a(O1, O2, N2, CA2) [5]: 136.54

Structure (SMILES): Cc1nc(N)ccc1CNC(=O)[C@H](C)NC(=O)[C@H]1C[C@H](Cc2ccccc2Br)CN1 [compound 1372, (2R,4S)—N—((S)-1-(((6-Amino-2-methylpyridin-3-yl)methyl)amino)-1-oxopropan-2-yl)-4-(2-bromobenzyl)pyrrolidine-2-carboxamide Di-trifluoroacetate salt]
- H-bond distance to MASP-2 ASP 627 atom OD2: 3.17
- H-bond distance to MASP-2 GLY 656 atom N: 3.23
- H-bond distance to MASP-2 GLY 656 atom O: 2.81
- H-bond distance to MASP-2 SER 628 atom O: 3.18
- H-bond distance to MASP-2 SER 654 atom O: 2.97
- H-bond distance to MASP-2 SER 657 atom O: 2.87
- van der Waals contact distance, MASP-2 HIS 483 atom CD2: 3.77
- van der Waals contact distance, MASP-2 HIS 483 atom NE2: 3.67
- van der Waals contact distance, MASP-2 GLY 528 atom CA: 3.83
- van der Waals contact distance, MASP-2 TYR 607 atom CD1 (Table A2-4): 3.77
- van der Waals contact distance, MASP-2 amino acid atom to compound atom [6]: 3.68
- van der Waals contact distance, VAL 653 CG1 to compound atom (Table A2-11): 3.32
- van der Waals contact distance, TRP 655 CA to compound atom (Table A2-12): 3.48
- van der Waals contact distance TRP 655 atom CE3 (Table A2-13): 3.54
- van der Waals contact distance TRP 655 atom CZ3 (Table A2-13): 3.48

Structure (SMILES): Cc1nc(N)ccc1CNC(=O)[C@H](C)NC(=O)[C@H]1C[C@H](Cc2ccccc2-c2ccccc2)CN1 [compound 1373, (2R,4S)-4-([1,1′-Biphenyl]-2-ylmethyl)-N—((S)-1-(((6-amino-2-methylpyridin-3-yl)methyl)amino)-1-oxopropan-2-yl)pyrrolidine-2-carboxamide Di-trifluoroacetate salt]
- H-bond distance to MASP-2 ASP 627 atom OD2: 3.21
- H-bond distance to MASP-2 GLY 656 atom N: 3.2
- H-bond distance to MASP-2 GLY 656 atom O: 2.76
- H-bond distance to MASP-2 SER 628 atom O: 3.18
- H-bond distance to MASP-2 SER 654 atom O: 3.04
- H-bond distance to MASP-2 SER 657 atom O: 2.89
- van der Waals contact distance, MASP-2 HIS 483 atom CD2: 3.71
- van der Waals contact distance, MASP-2 HIS 483 atom NE2: 3.62
- van der Waals contact distance, MASP-2 GLY 528 atom CA: 3.79
- van der Waals contact distance, MASP-2 amino acid atom to compound atom [6]: 3.64
- van der Waals contact distance, VAL 653 CG1 to compound atom (Table A2-11): 3.34
- van der Waals contact distance, SER 654 O to compound atom (Table A2-12): 3.83
- van der Waals contact distance, TRP 655 CA to compound atom (Table A2-12): 3.44
- van der Waals contact distance TRP 655 atom CE3 (Table A2-13): 3.65
- van der Waals contact distance TRP 655 atom CZ3 (Table A2-13): 3.57
- van der Waals contact distance, MASP-2 amino acid atom to compound atom [1]: 3.83
- Ligand-pharmacophore element distance, pharmacophore element C2: 0
- Ligand-pharmacophore element distance, pharmacophore element C3: 0.08
- Ligand-pharmacophore element distance, pharmacophore element C4: 0
- Ligand-pharmacophore element distance, pharmacophore element C5: 0
- Ligand-pharmacophore element distance, pharmacophore element C6: 0
- Ligand-pharmacophore element distance, pharmacophore element C7: 0
- Ligand-pharmacophore element distance, pharmacophore element CA1: 0.56
- Ligand-pharmacophore element distance, pharmacophore element CA2: 0.54
- Ligand-pharmacophore element distance, pharmacophore element CA3: 0
- Ligand-pharmacophore element distance, pharmacophore element CA4: 0
- Ligand-pharmacophore element distance, pharmacophore element CA5: 2.5
- Ligand-pharmacophore element distance, pharmacophore element CA6: 0
- d(C3,CA1) [2]: 2.85
- d(CA1,N1)2 [2]: 1.37
- d(CA1,O1) [2]: 4.41
- d(CA1,O2) [2]: 3.86
- d(H4,O1) [2]: 4.40
- d(H4,O2) [2]: 3.78
- d(O1,O2) [2]: 3.38
- d(CA5,N2) [3]: 6.60
- d(N2,CA2) [3]: 6.03
- d(O2,H3) [3]: 4.31
- d(O2,N2) [3]: 2.65
- a(C3, CA1, O1) (Table A6-1 pharmacophore angle): 149.81
- a(CA1, O1, O2) (Table A6-1 pharmacophore angle): 105.28
- a(O1, O2, H4) (Table A6-1 pharmacophore angle): 131.90
- a(N1, CA1, O1) b) (Table A6-1 pharmacophore angle, Methyl-amino-pyridine compounds): 174.08
- a(O1, O2, H3): 147.32
- a(O1, O2, N2): 141.07
- a(O2, N2, CA2): 156.78
- Pharmacophore torsion angle a(C3, CA1, O1, H4) [4]: 25.67
- Pharmacophore torsion angle a(H4, O1, O2, H3) [4]: 50.98
- Pharmacophore torsion angle a(H4, O1, O2, N2) [4]: 139.02
- Pharmacophore torsion angle a(N1, CA1, O1, H4) [4]: 4.28
- Pharmacophore torsion angle a(O1, H4, O2, CA1) [4]: −84.42
- Pharmacophore torsion angle a(O1, O2, N2, CA2) [5]: 127.58
- Pharmacophore torsion angle a(O1, O2, N2, CA5) [5]: 91.76
